Source: the CATMoS acute toxicity set (Mansouri et al. 2021)

Assay: GHS categories as the set defines them, by LD50: 1 up to 5, 2 up to 50, 3 up to 300, 4 up to 2000, 5 above 2000 mg/kg
Conditions: rat; in vivo; po

SMILES: CC(CCO)CCCC(C)(C)O (stereo not drawn)
- GHS category: 5

SMILES: Cc1ncoc1C(N)=O
- GHS category: 5

SMILES: CCOC(=O)C1OC1C(=O)NC(CC(C)C)C(=O)NCCC(C)C (stereo not drawn)
- GHS category: 5

SMILES: O=S(=O)(O)CCN1CCN(CCO)CC1
- GHS category: 5

SMILES: CCOC(=O)CC(CC(C)=O)C(=O)OCC (stereo not drawn)
- GHS category: 5

SMILES: Cc1nc2n(c1/C=N/NC(=O)CN(C)C)CCS2
- GHS category: 4

SMILES: COC(=O)N(OC)c1ccccc1COc1ccn(-c2ccc(Cl)cc2)n1
- GHS category: 5

SMILES: CCCCn1cc2c3c(cccc31)[C@@]1(OC)C[C@@H](COC(=O)c3cncc(Br)c3)CN(C)[C@@H]1C2
- GHS category: 4

SMILES: CCCCC1C(=O)N(c2ccccc2)N(c2ccc(S(C)(=O)=O)cc2)C1=O (stereo not drawn)
- GHS category: 4

SMILES: CC(C)CCCC1CCC(C)(C(=O)O)CC1 (stereo not drawn)
- GHS category: 5

SMILES: CC/C=C/C=C\CCCCCCCCOC(C)=O
- GHS category: 4

SMILES: N#C[Se]Cc1ccc(C[Se]C#N)cc1
- GHS category: 4

SMILES: C=CC(=O)OCCCOc1ccc(C(=O)Oc2ccc(OC(=O)c3ccc(OCCCOC(=O)C=C)cc3)c(C)c2)cc1
- GHS category: 5

SMILES: CC(C)[C@@H]1CC[C@@H](C)C[C@H]1OC(=O)Cc1ccccc1
- GHS category: 5

SMILES: CCOC(=O)NC(=S)Nc1ccccc1NC(=S)NC(=O)OCC
- GHS category: 5

SMILES: COCC1=C(C(=O)OC(C)OC(=O)OC(C)C)N2C(=O)[C@@H](NC(=O)/C(=N\OC)c3csc(N)n3)[C@H]2SC1 (stereo partly drawn)
- GHS category: 5

SMILES: CCCCCCCCCCCCCCCCCC(=O)OC
- GHS category: 5

SMILES: CC(SC(=O)c1cccs1)C(=O)NCC(=O)O (stereo not drawn)
- GHS category: 5

SMILES: C/C=C(\C)C(=O)OCC
- GHS category: 5

SMILES: CCCCC(C)OP(=S)(OCC)OCC (stereo not drawn)
- GHS category: 4

SMILES: Cc1c(C)c2c(c(C)c1OC(=O)C(C)(C)Oc1ccc(Cl)cc1)CC[C@@](C)(CCC[C@H](C)CCC[C@H](C)CCCC(C)C)O2
- GHS category: 5

SMILES: NC(CSCC(=O)O)C(=O)O (stereo not drawn)
- GHS category: 5

SMILES: O=C1CN2CCOC2(c2ccccc2F)c2cc(Cl)ccc2N1CCO (stereo not drawn)
- GHS category: 5

SMILES: Cn1c(N)cc(=O)n(C)c1=O
- GHS category: 5

SMILES: CSc1nnc(C(C)(C)C)c(=O)n1/N=C/C(C)C
- GHS category: 5

SMILES: Clc1ccc(N/C(=N/C2CCCCC2)c2ccccc2)c(Cl)c1
- GHS category: 5

SMILES: C=CC(=O)OCCCCCC(C)C
- GHS category: 5

SMILES: CCCC/C=C/CC/C=C\CCCCCCOC(C)=O
- GHS category: 5

SMILES: CCCCCCCCCCCCCCCC(=O)OC(C)C
- GHS category: 5

SMILES: CC1NC(=S)C(C(O)O)C(O)C1C (stereo not drawn)
- GHS category: 5

SMILES: CCCCN(CCCC)C(=S)SCSC(=S)N(CCCC)CCCC
- GHS category: 5

SMILES: O=C(O)c1ccc(NC(=O)[C@H](Cc2ccc(O)cc2)NC(=O)c2ccccc2)cc1
- GHS category: 5

SMILES: CC1(C)CC2(CC(C)(C)N1)OC1(CCCCCCCCCCC1)NC2=O
- GHS category: 5

SMILES: O=[N+]([O-])c1cc2c(Nc3ccc(F)c(Cl)c3)ncnc2cc1S(=O)(=O)c1ccccc1
- GHS category: 5

SMILES: Oc1cc(O)ncn1
- GHS category: 5

SMILES: CCn1cc(C(=O)O)c(=O)c2cc(F)c(-n3cccc3)cc21
- GHS category: 5

SMILES: CCCCCCCCCCCCCc1cccc(O)c1C(=O)O
- GHS category: 4

SMILES: CCOCC=C(C)CCC=C(C)C
- GHS category: 5

SMILES: NC1=NC(=O)CC(=O)N1
- GHS category: 5

SMILES: CN1C(=O)C(C)(C)Oc2cc(C(=O)c3ccc(Cl)cc3)ccc21
- GHS category: 5

SMILES: CCOP(=O)(CC(=O)Nc1cc2c(Nc3ccc(F)c(Cl)c3)ncnc2cc1O[C@H]1CCOC1)OCC
- GHS category: 5

SMILES: COc1cccc(N(C)C(=S)Oc2ccc3c(c2)CCCC3)n1
- GHS category: 5

SMILES: O=C1c2ccc3c4ccc5c6c(ccc(c7ccc(c2c37)C(=O)N1CCc1ccccc1)c64)C(=O)N(CCc1ccccc1)C5=O
- GHS category: 5

SMILES: CCOCCN(Cc1ccc(Oc2ccc([N+](=O)[O-])cc2)cc1)C(=O)C(Cl)Cl
- GHS category: 5

SMILES: Cc1cccc2ncc(C(=O)NC3CC3)c(=O)n12
- GHS category: 3

SMILES: CCn1cc(C(=O)O)c(=O)c2cnc(N3CCNCC3)nc21
- GHS category: 5

SMILES: Clc1cc(Cl)ncn1
- GHS category: 3

SMILES: CCCCCCCCCl
- GHS category: 5
